Experimental data taken from publication PMC5443346 (Bioorganic & medicinal chemistry, 2017).

Tested on: P. Falciparum 3D7
Test: SYBR Green I growth inhibition assay, 3D7 strain
Assay type: cell-based
Settings: Plasmodium falciparum, 3D7, 72 h, read-out: P. Falciparum 3D7 IC50

Compound: CCN(CC)CCCC(C)Nc1ccnc2cc(Cl)ccc12 (stereo not shown) [Chloroquine, chloroquine]
- IC50: 52 ± 12 nM
